Measured values taken from publication PMC5458252, “Niclosamide is a potential therapeutic for familial adenomatosis polyposis by disrupting Axin-GSK3 interaction” (Oncotarget, 2017).

Target: T1, GSK3β (Homo sapiens, UniProt P49841)
T1 construct: gene GSK3B; His-tagged recombinant GSK3β from sf9 insect cells
Assay: SPR (ProteOn XPR36, immobilized recombinant GSK3β); supported by competition with FITC-Axin peptide (AFF assay)
Format: binding
Excerpt: SPR (ProteOn XPR36, immobilized recombinant GSK3β); supported by competition with FITC-Axin peptide (AFF assay) on GSK3β | wild type Axin peptide or niclosamide directly binds to GSK3, the equilibrium dissociation constant yielding a KD

T1 sequence (P49841 whole entry): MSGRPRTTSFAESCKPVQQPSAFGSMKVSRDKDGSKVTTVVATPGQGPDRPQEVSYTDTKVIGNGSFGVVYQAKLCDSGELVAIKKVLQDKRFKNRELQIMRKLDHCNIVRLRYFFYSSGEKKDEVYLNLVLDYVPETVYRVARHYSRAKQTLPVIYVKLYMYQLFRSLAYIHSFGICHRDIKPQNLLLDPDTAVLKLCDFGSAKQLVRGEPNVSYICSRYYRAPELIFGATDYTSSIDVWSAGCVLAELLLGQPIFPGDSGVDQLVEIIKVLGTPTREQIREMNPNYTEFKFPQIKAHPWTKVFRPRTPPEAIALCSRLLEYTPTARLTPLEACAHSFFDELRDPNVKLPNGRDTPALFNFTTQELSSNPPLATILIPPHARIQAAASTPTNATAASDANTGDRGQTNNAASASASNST

SMILES: O=C(Nc1ccc([N+](=O)[O-])cc1Cl)c1cc(Cl)ccc1O [Niclosamide]
- Kd: 34.5 µM
